Values after ≈ are worked out from the molar mass of the structure shown.

What is called MIC is the least concentration at which growth counts as inhibited. Higher therefore signals weaker potency.

Assay in all cases: ≥ marks a high value that may be exact or a test limit, other limits are often not marked, values filed in µg/mL are converted to µM
Assay [1] relates to Pseudomonas aeruginosa ATCC 27853.
Assay [2] concerns Staphylococcus aureus ATCC 25923.
Assay [3] deals with Staphylococcus aureus ATCC 33591.
Assay [4] relates to Staphylococcus epidermidis ATCC 35984.
The subject of a further assay is Candida glabrata 090902.
The test system of assay [5] is Enterococcus faecalis 981.
Assay [6] concerns Nocardia asteroides 201118.
In assay [7] the test system is Psychrobacter faecalis X29.
The next assay has as its system Escherichia coli BL21AI.
Assay [8] deals with Micrococcus luteus ATCC 10240.
The subject of assay [9] is Bacillus subtilis KCTC 3068.
Assay [10] deals with Enterococcus faecalis ATCC 51575.
Assay [11] concerns Enterococcus faecalis KCCM 29212.
In assay [12] the test system is Enterococcus faecium ATCC 51559.
Assay [13] concerns Enterococcus faecium KCCM 12118.
Assay [14] relates to Escherichia coli KCTC 1682.
In assay [15] the test system is Pseudomonas aeruginosa KCTC 1637.
In assay [16] the test system is Salmonella typhimurium KCTC 1926.
For assay [17], the system named is Staphylococcus aureus KCCM 40510.
The subject of assay [18] is Staphylococcus aureus KCTC 1621.
The test system of assay [19] is Staphylococcus epidermidis KCTC 1917.
Assay [20] concerns Neisseria gonorrhoeae F62.
Assay [21] has as its system Neisseria gonorrhoeae FA19.

For the compound `CC[C@H](C)[C@H](NC(=O)[C@H](CCCCN)NC(=O)[C@@H](NC(=O)[C@H](Cc1ccccc1)NC(=O)[C@H](C)NC(=O)[C@H](CCCCN)NC(=O)CNC(=O)[C@H](Cc1ccccc1)NC(=O)[C@H](CCCCN)NC(=O)[C@H](CCCCN)NC(=O)[C@H](C)N)C(C)C)C(=O)N[C@@H](CC(C)C)C(N)=O` [AKKFGKAFVKIL], the MIC is 33.5 µM (≈ 45.2 µg/mL) in [1], 190 µM (≈ 256 µg/mL) in [2], at least 94.8 µM in [3] and at least 94.8 µM in assay [4].

In the case of `CC[C@H](C)[C@H](NC(=O)[C@H](CC(C)C)NC(=O)CNC(=O)[C@@H]1CCCN1C(=O)[C@H](CC(C)C)NC(=O)[C@@H](N)Cc1ccccc1)C(=O)N[C@@H](CCCCN)C(=O)N[C@H](C(=O)N[C@@H](C)C(=O)N[C@H](C(=O)NCC(=O)N[C@H](C(=O)NCC(=O)N[C@@H](CO)C(=O)N[C@H](C(=O)N[C@H](C(=O)N[C@@H](CC(C)C)C(=O)N[C@H]1CSSC[C@@H](C(=O)O)NC(=O)[C@H](CCCCN)NC(=O)[C@H](CCCCN)NC(=O)[C@H]([C@@H](C)O)NC(=O)[C@H]([C@@H](C)CC)NC(=O)[C@H](CCCCN)NC1=O)[C@@H](C)CC)[C@@H](C)O)C(C)C)C(C)C)C(C)C` [FLPGLIKVAVGVGSTILCKITKKC], the MIC is 6.3 µM (≈ 15.7 µg/mL) with Candida glabrata 090902; 3.1 µM (≈ 7.71 µg/mL) in [5]; 3.1 µM (≈ 7.71 µg/mL) in assay [6]; at least 50 µM in [7]; 6.3 µM (≈ 15.7 µg/mL) in assay [2].

For `CC[C@H](C)[C@H](NC(=O)[C@H](CCCCN)NC(=O)[C@@H]1CCCN1C(=O)[C@H](CC(C)C)NC(=O)[C@H](CC(C)C)NC(=O)[C@@H](NC(=O)[C@H](CO)NC(=O)[C@H](CC(C)C)NC(=O)[C@H](C)NC(=O)CNC(=O)[C@H](Cc1ccccc1)NC(=O)[C@H](CC(C)C)NC(=O)[C@H](CC(C)C)NC(=O)[C@@H]1CCCN1C(=O)[C@H](CC(C)C)NC(=O)[C@@H](N)Cc1ccccc1)[C@@H](C)O)C(=O)N[C@@H](Cc1ccccc1)C(N)=O` [FLPLLFGALSTLLPKIF], the MIC in [5] is at least 50 µM; in assay [6], 12.5 µM (≈ 23.6 µg/mL); in assay [2], 25 µM (≈ 47.2 µg/mL).

As to `CC[C@H](C)[C@H](NC(=O)CN)C(=O)NCC(=O)N[C@@H](CCCCN)C(=O)N[C@@H](Cc1ccccc1)C(=O)N[C@@H](CC(C)C)C(=O)N[C@@H](CCCCN)C(=O)N[C@@H](CCCCN)C(=O)N[C@@H](C)C(=O)N[C@@H](CCCCN)C(=O)N[C@@H](CCCCN)C(=O)N[C@@H](Cc1ccccc1)C(=O)NCC(=O)N[C@@H](CCCCN)C(=O)N[C@@H](C)C(=O)N[C@@H](Cc1ccccc1)C(=O)N[C@H](C(N)=O)C(C)C` [GIGKFLKKAKKFGKAFV], the MIC is 17.1 µM (≈ 32 µg/mL) in assay [2], at least 48.5 µM in assay [3] and 3.03 µM (≈ 5.65 µg/mL) in [4].

Regarding `CC[C@H](C)[C@H](NC(=O)[C@H](Cc1ccc(O)cc1)NC(=O)[C@@H](NC(=O)[C@@H]1CCCN1C(=O)[C@H](CCCN=C(N)N)NC(=O)[C@H](CC(N)=O)NC(=O)[C@H](CC(N)=O)NC(=O)CN)C(C)C)C(=O)N1CCC[C@H]1C(=O)N[C@@H](CCCN=C(N)N)C(=O)N1CCC[C@H]1C(=O)N[C@@H](CCCN=C(N)N)C(=O)N1CCC[C@H]1C(=O)N1CCC[C@H]1C(=O)N[C@@H](Cc1cnc[nH]1)C(=O)N1CCC[C@H]1C(=O)N[C@@H](CCCN=C(N)N)C(=O)N[C@@H](CC(C)C)C(=O)N[C@H](C(=O)O)C(C)C` [GNNRPVYIPRPRPPHPRLV], the MIC against Escherichia coli BL21AI came to 3.49 µM (≈ 7.81 µg/mL); in assay [8], 0.107 µM (≈ 0.24 µg/mL).

With `CC[C@H](C)[C@H](NC(=O)[C@H](CS)NC(=O)[C@H](CC(C)C)NC(=O)[C@@H](N)CC(C)C)C(=O)N[C@@H](C)C(=O)N[C@@H](CC(C)C)C(=O)N[C@@H](CCCN=C(N)N)C(=O)N[C@@H](CCCCN)C(=O)N[C@@H](CCCCN)C(N)=O` [LLCIALRKK], the MIC came to 3.78 µM (≈ 4 µg/mL) in [9]; 0.946 µM (≈ 0.999 µg/mL) in [10]; 0.946 µM (≈ 0.999 µg/mL) in [11]; 1.89 µM (≈ 2 µg/mL) in [12]; 7.57 µM (≈ 7.99 µg/mL) in [13]; 3.78 µM (≈ 4 µg/mL) in [14]. Moreover, the MIC in assay [15] was 7.57 µM (≈ 7.99 µg/mL); in assay [16], 3.78 µM (≈ 4 µg/mL); in assay [17], 7.57 µM (≈ 7.99 µg/mL); in [18], 7.57 µM (≈ 7.99 µg/mL); in assay [19] it was 3.78 µM (≈ 4 µg/mL).

Take `CC[C@H](C)[C@H](NC(=O)[C@H](CCCCN)NC(=O)[C@H](CCCN=C(N)N)NC(=O)[C@H](CC(C)C)NC(=O)[C@H](C)NC(=O)[C@H](CCCCN)NC(=O)[C@H](CS)NC(=O)[C@H](CC(C)C)NC(=O)[C@@H](N)CC(C)C)C(N)=O` [LLCKALRKI]: the minimal inhibitory concentration (MIC) in assay [9] came out at 3.78 µM (≈ 4 µg/mL); in assay [10], 30.3 µM (≈ 32 µg/mL); in assay [11] it was 7.57 µM (≈ 7.99 µg/mL); in assay [12] it was 1.89 µM (≈ 2 µg/mL); in assay [13], 3.78 µM (≈ 4 µg/mL); in assay [14], 7.57 µM (≈ 7.99 µg/mL). The MIC in [15], in assay [16], in assay [17], in assay [18] and in assay [19] was 7.57 µM (≈ 7.99 µg/mL) throughout.

In the case of `CC(C)C[C@H](NC(=O)[C@H](CCCNC(=N)N)NC(=O)CNC(=O)CNC(=O)[C@@H](N)CCCNC(=N)N)C(=O)N[C@@H](C)C(=O)N[C@@H](Cc1ccc(O)cc1)C(=O)N[C@@H](C)C(=O)N[C@@H](CCCNC(=N)N)C(=O)N[C@@H](CCCNC(=N)N)C(=O)N[C@@H](CCCNC(=N)N)C(=O)N[C@@H](Cc1ccccc1)C(=O)N[C@@H](C)C(=O)N[C@H](C(=O)N[C@@H](C)C(=O)N[C@H](C(=O)NCC(=O)N[C@@H](CCCNC(=N)N)C(N)=O)C(C)C)C(C)C` [RGGRLAYARRRFAVAVGR], the MIC was 10 µM (≈ 20.3 µg/mL) in assay [20] and at least 224 µM in [21].

For the compound `CC[C@H](C)[C@H](NC(=O)[C@H](CCCN=C(N)N)NC(=O)[C@H](CCCN=C(N)N)NC(=O)[C@@H]1CCCN1C(=O)[C@@H]1CCCN1C(=O)[C@H](CCCN=C(N)N)NC(=O)[C@@H]1CCCN1C(=O)[C@H](CCCN=C(N)N)NC(=O)[C@@H]1CCCN1C(=O)[C@H](CC(C)C)NC(=O)[C@H](Cc1ccc(O)cc1)NC(=O)[C@@H]1CCCN1C(=O)[C@@H]1CCCN1C(=O)[C@H](CCCCN)NC(=O)[C@H](CC(=O)O)NC(=O)[C@@H](N)C(C)C)C(=O)N[C@@H](Cc1ccc(O)cc1)C(=O)N[C@@H](CC(N)=O)C(=O)N[C@@H](CC(N)=O)C(N)=O` [VDKPPYLPRPRPPRRIYNN], the MIC came to 6.81 µM (≈ 16 µg/mL) against Escherichia coli BL21AI and 27.2 µM (≈ 64 µg/mL) in assay [8].

The record behind these values is DBAASP.
